ChEMBL document CHEMBL1201862, “PubChem BioAssay data set” (2004)
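Five concentrations, 48 hours, 96-well plates. Here, GI50 denotes the concentration required for 50% inhibition of growth.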 Activity calls are given as the source filed them. No stated cut-off is given here; in the data, active = GI50 up to about 1.1 µM and inactive = higher.

Legend:
Assay in all cases: inhibition of tumour cell growth, NCI panel, 48 h
OVCAR-8 = system: OVCAR-8
UACC-62 = system: UACC-62
A549 = system: A549
CCRF-CEM = system: CCRF-CEM
HOP-92 = system: HOP-92
ACHN = system: ACHN
M14 = system: M14
OVCAR-4 = system: OVCAR-4
OVCAR-3 = system: OVCAR-3
HCT-116 = system: HCT-116
HL-60 = system: HL-60
RPMI-8226 = system: RPMI-8226
K562 = system: K562
MDA-MB-231 = system: MDA-MB-231
MDA-MB-435 = system: MDA-MB-435
T47D = system: T47D
EKVX = system: EKVX
NCI-H522 = system: NCI-H522
MCF7 = system: MCF7

Measured: GI50

CCCCCCCC(=O)OCC(COC(=O)C(C)(C)C)OC(=O)Cc1ccccc1 (centres undefined)
inactive: OVCAR-8 > 100 µM | UACC-62 > 100 µM | A549 > 100 µM | CCRF-CEM > 100 µM | HOP-92 > 100 µM | ACHN > 100 µM | M14 > 100 µM | OVCAR-4 > 100 µM | OVCAR-3 58.3 µM | HCT-116 > 100 µM | HL-60 > 100 µM | RPMI-8226 > 100 µM | K562 > 100 µM

COC(=O)[C@H](CC(C)C)NC1=C(Cl)C(=O)c2c(O)ccc(O)c2C1=O
inactive: MDA-MB-231 > 10 µM | OVCAR-8 > 10 µM | UACC-62 > 10 µM | MDA-MB-435 8.89 µM | A549 7.24 µM | CCRF-CEM 4.31 µM | HOP-92 > 10 µM | ACHN > 10 µM | T47D > 10 µM | M14 3.45 µM | OVCAR-4 > 10 µM | OVCAR-3 1.73 µM | HCT-116 2.46 µM | HL-60 8.02 µM | EKVX > 10 µM | NCI-H522 > 10 µM | RPMI-8226 4.81 µM | K562 > 10 µM

Cc1csc(-n2c(C)nc3cc(Cl)ccc3c2=O)n1
inactive: MDA-MB-231 > 100 µM | OVCAR-8 > 100 µM | UACC-62 > 100 µM | MDA-MB-435 > 100 µM | A549 > 100 µM | CCRF-CEM 74.8 µM | HOP-92 10.4 µM | ACHN > 100 µM | M14 > 100 µM | OVCAR-4 45.4 µM | MCF7 31.5 µM | OVCAR-3 78.9 µM | HCT-116 > 100 µM | HL-60 > 100 µM | EKVX 8.02 µM | NCI-H522 22.2 µM | K562 83.6 µM

C=C1CCCC2[C@](C)(CC3=C(Cl)C(=O)C=C(OC)C3=O)C(C)CC[C@]12C (some centres undefined)
inactive: MDA-MB-231 7.6 µM | OVCAR-8 2.93 µM | UACC-62 6.4 µM | MDA-MB-435 6.62 µM | A549 5.27 µM | CCRF-CEM 1.45 µM | HOP-92 6.12 µM | ACHN 4.66 µM | M14 4.33 µM | OVCAR-4 7.52 µM | MCF7 1.49 µM | OVCAR-3 5.93 µM | HCT-116 1.75 µM | HL-60 1.9 µM | EKVX 2.02 µM | NCI-H522 1.16 µM | RPMI-8226 1.63 µM | K562 1.67 µM

c1ccc(CCNc2ccccn2)nc1
inactive: MDA-MB-231 > 100 µM | OVCAR-8 > 100 µM | UACC-62 > 100 µM | MDA-MB-435 > 100 µM | A549 > 100 µM | CCRF-CEM > 100 µM | HOP-92 > 100 µM | ACHN > 100 µM | M14 > 100 µM | OVCAR-4 > 100 µM | MCF7 > 100 µM | OVCAR-3 > 100 µM | HCT-116 > 100 µM | HL-60 > 100 µM | EKVX > 100 µM | NCI-H522 > 100 µM

C=CCOC1CC(n2cnc3c(N)ncnc32)OC1CO (centres undefined)
inactive: OVCAR-8 > 100 µM | UACC-62 > 100 µM | A549 > 100 µM | CCRF-CEM > 100 µM | HOP-92 > 100 µM | ACHN > 100 µM | M14 > 100 µM | OVCAR-4 > 100 µM | OVCAR-3 > 100 µM | HCT-116 > 100 µM | HL-60 > 100 µM | NCI-H522 > 100 µM | RPMI-8226 > 100 µM | K562 > 100 µM

C=CCNC(=S)N/C=C(/C(C)=O)C(=O)Nc1ccccc1C
inactive: MDA-MB-231 > 100 µM | OVCAR-8 > 100 µM | UACC-62 > 100 µM | MDA-MB-435 > 100 µM | A549 > 100 µM | ACHN > 100 µM | T47D > 100 µM | M14 > 100 µM | OVCAR-4 > 100 µM | MCF7 > 100 µM | OVCAR-3 > 100 µM | HCT-116 > 100 µM | HL-60 > 100 µM | EKVX > 100 µM | NCI-H522 > 100 µM | RPMI-8226 4.76 µM | K562 > 100 µM

Cc1cn(C2CC(/[N+]([O-])=N\Nc3ccc([N+](=O)[O-])cc3)C(CO)O2)c(=O)[nH]c1=O (centres undefined)
inactive: MDA-MB-231 73.3 µM | OVCAR-8 > 100 µM | UACC-62 > 100 µM | MDA-MB-435 > 100 µM | A549 > 100 µM | CCRF-CEM > 100 µM | HOP-92 > 100 µM | ACHN > 100 µM | M14 > 100 µM | OVCAR-3 > 100 µM | HCT-116 > 100 µM | HL-60 > 100 µM | EKVX > 100 µM | NCI-H522 > 100 µM | RPMI-8226 42.8 µM | K562 > 100 µM
